Assays:
Type in all cases: in vivo
[1] = system: caterpillars of the fall army worm (Spodoptera frugiperda); experiment: Spodoptera frugiperda spray test (cotton leaves); conditions: 168 h, after 7 days
Protocol: Spodoptera frugiperda—spray test • Solvent: 14 parts by weight of dimethylformamide • Emulsifier: alkylaryl polyglycol ether
(§1) To produce a suitable preparation of active compound, 1 part by weight of active compound is mixed with the stated amount of solvent and is diluted with water, containing an emulsifier concentration of 1000 ppm, to the desired concentration. Further test concentrations are prepared by dilution with emulsifier containing water. Ammonium salt and/or penetration enhancer in a dosage of 1000 ppm are added to the desired concentration if necessary.
Cotton leaves (Gossypium hirsutum) are treated by being sprayed with the preparation of the active compound of the desired concentration and are infested with caterpillars of the fall army worm (Spodoptera frugiperda).
After 7 days mortality in % is determined. 100% means all the caterpillars have been killed and 0% means none of the caterpillars have been killed.

[2] = system: adult brown dog ticks (Rhipicephalus sanguineus); experiment: Rhipicephalus sanguineus in-vitro contact test with adult brown dog ticks; conditions: 5 μg/cm^2 (=500 g/ha), after 48 hours, read-out: efficacy (ticks dead or moribund)
Method in brief: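 Read-out: % efficacy as dead or moribund ticks, judged 48 h after exposure by failure to climb away from a 45-50° C heating plate within 5 min. Tubes were coated with acetone solution (900 ppm = 5 μg/cm^2 surface dose) and held 5-10 adults each at room temperature.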

[3] = system: Rhipicephalus microplus larvae (strain Parkhurst, resistant against synthetic pyrethroids); experiment: Rhipicephalus (Boophilus) microplus in-vitro contact test, larval cattle tick; conditions: 5 μg/cm^2 (=500 g/ha), after 48 hours, read-out: efficacy (larvae dead or moribund)
Method in brief: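 Efficacy is read at 48 h from negative geotactic behaviour after larvae are patted to the tube bottom, expressed as percentage dead or moribund. Larvae (20-50) sit in glass tubes whose walls carry an evaporated acetone film of compound (900 ppm corresponds to 5 μg/cm^2), kept at 27° C., 85% relative humidity.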

[4] = system: adult cat fleas (Ctenocephalides felis); experiment: Ctenocephalides felis in-vitro contact test, adult cat flea; conditions: 5 μg/cm^2 (=500 g/ha), after 48 hours
Method in brief: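 After 48 h of room-temperature exposure in tubes whose walls carried dried compound residue (5 μg/cm^2, from 900 ppm acetone solution), adult cat fleas (5-10 per tube) were heat-challenged at 45-50° C up to 5 min. Fleas unable to climb away were counted dead or moribund, expressed as % efficacy.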

[5] = system: fall armyworm larvae (Spodoptera frugiperda); experiment: Spodoptera frugiperda spray test (SPODFR, maize leaf sections), comparison; conditions: 168 h, 7 dat, read-out: % Efficacy
Protocol: Spodoptera fruaiperda—Spray Test (SPODFR) • Solvent: 78.0 parts by weight acetone • 1.5 parts by weight dimethylformamide • Emulsifier: alkylarylpolyglycol ether
as §1, with “solvents” for “solvent”, “water.” for “water. Ammonium salt and/or penetration enhancer in a dosage of 1000 ppm are added to the desired concentration if necessary.”
Maize (Zea mays) leaf sections are sprayed with a preparation of the active ingredient of the desired concentration. Once dry, the leaf sections are infested with fall armyworm larvae (Spodoptera frugiperda).
After the specified period of time, mortality in % is determined in comparison to the untreated control plant. 100% means all caterpillars have been killed and 0% means none of the caterpillars have been killed.

[6] = system: larvae of the southern green stink bug (Nezara viridula); experiment: Nezara viridula spray test (NEZAVI), comparison; conditions: 96 h, 500 g ai/ha, 4 dat, read-out: % Efficacy
Protocol: Nezara viridula—Spray Test (NEZAVI) • Solvent: 78.0 parts by weight of acetone • 1.5 parts by weight of dimethylformamide • Emulsifier: alkylarylpolyglycol ether
To produce a suitable preparation of active compound, 1 part by weight of active compound is mixed with the stated amount of solvent, and the concentrate is diluted with water, containing an emulsifier concentration of 1000 ppm, to the desired concentration. Further test concentrations are prepared by dilution with emulsifier containing water.
Barley plants (Hordeum vulgare) are sprayed with a test solution containing the desired concentration of the active ingredient and are infested with larvae of the southern green stink bug (Nezara viridula).
After the specified period of time, mortality in % is determined in comparison to the untreated control plant. 100% means all the stink bugs have been killed; 0% means none of the stink bugs have been killed.

[7] = system: larvae of the southern green stink bug (Nezara viridula); experiment: Nezara viridula spray test; conditions: in Hordeum vulgare, 96 h
Method in brief: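 Mortality (%) of stink bug larvae on treated barley (Hordeum vulgare) was scored 4 days after infestation. Test solutions came from an acetone/DMF concentrate diluted with water containing 1000 ppm emulsifier and were sprayed onto plants before larvae were added.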

[8] = system: fall armyworm larvae (Spodoptera frugiperda); experiment: Spodoptera frugiperda spray test (maize leaf sections); conditions: 168 h
Method in brief: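 Percent kill of Spodoptera frugiperda caterpillars read at day 7. Larvae placed on dried Zea mays leaf pieces previously sprayed with test preparation, made from acetone plus DMF and diluted with emulsifier-containing water (1000 ppm).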

[9] = system: larvae of the banded cucumber beetle (Diabrotica balteata); experiment: Diabrotica balteata spray test; conditions: 168 h, 100 g/ha (=32 μg/well), wheat seeds, after 7 days, read-out: efficacy (seedling growth)
Method in brief: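 Efficacy in % was read 7 days after infesting with 10-20 larvae per unit. Before infestation, 1-day-germinated wheat seedlings (5 per well) were sprayed with the active ingredient, formulated in acetone and dimethylformamide plus emulsifier and diluted with water containing emulsifier.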

| Compound | mortality at 20 ppm [1] | pest or weed control at 5 µg/cm2, 500 g/ha [2] | pest or weed control at 5 µg/cm2 [3] | efficacy (fleas dead or moribund) [4] | also measured |
| --- | --- | --- | --- | --- | --- |
| C[C@H](NC(=O)c1cc(OC(F)(F)F)cc(S(C)(=O)=O)c1)c1ncnn1-c1ncc(C#N)s1 [I-93] | 100% | – | – | – | – |
| C[C@H](NC(=O)c1cc(OC(F)F)cc(OC(F)F)c1)c1ncnn1-c1ncc(C#N)s1 [I-94] | 100% | 100% | 100% | 100% | – |
| C[C@H](NC(=O)c1cc(Cl)cc(OC(F)(F)F)c1)c1ncnn1-c1ncc(C#N)s1 [I-96] | 100% | – | – | – | – |
| C[C@H](NC(=O)c1cc(C(F)F)cc(C(F)F)c1)c1ncnn1-c1ncc(C#N)s1 [I-97] | 100% | 100% | 100% | 100% | – |
| C[C@H](NC(=O)c1cc(OC(F)(F)F)cc(C(F)F)c1)c1ncnn1-c1ncc(C#N)s1 [I-98] | 100% | 100% | 100% | 100% | – |
| CNC(=O)c1cnc(-n2ncnc2[C@H](C)NC(=O)c2cc(Cl)cc(S(=O)(=O)C(F)(F)F)c2)s1 [I-110] | – | – | – | – | Emax at 20 g/ha ([5]; 20 g ai/ha): 67%; larval mortality at 100 g/ha ([5]; 100 g ai/ha): 100%; stink bug mortality at 500 g/ha [6]: 100%; mortality at 100 g/ha [7]: 90%; mortality at 500 g/ha [7]: 100%; mortality at 100 g/ha [8]: 100%; pest or weed control at 32 µg/disc, 100 g/ha [9]: 100% |

From patent US20230065953A1, “NOVEL HETEROARYL-TRIAZOLE COMPOUNDS AS PESTICIDES” (Bayer Aktiengesellschaft, priority 2019, published 2023)
